Source: paper PMC11747885, “Potent inhibitors of the human RNA ligase Rlig1 highlights its role in RNA integrity maintenance under oxidative cellular stress” (Chemical Science, 2025)

Molecular target: T1, Rlig1-AMP (Homo sapiens, UniProt Q8N999)
T1 construct: made in house; host or cells: E. coli BL21 (DE3), pET15b-Rlig1
Assay: FRET-based high-throughput screening of inhibitors for Rlig1-AMP
Assay type: biochemical
Conditions: for Raw data [w Enyzm]: with enzyme; for Raw data [w/o Enzym]: without enzyme

[1] = sheet HTS hits, MedChemExpress library
[2] = sheet HTS hits, difference of raw data w/o and w enzyme
[3] = HTS hits, difference of raw data w/o and w enzyme
[4] = HTS hits, normalised value of 1-D Distance
[5] = HTS hits, MedChemExpress library
[6] = HTS hits, difference of raw data without and with enzyme
[7] = HTS hits, normalized value (npi)

T1 sequence (Q8N999 whole entry): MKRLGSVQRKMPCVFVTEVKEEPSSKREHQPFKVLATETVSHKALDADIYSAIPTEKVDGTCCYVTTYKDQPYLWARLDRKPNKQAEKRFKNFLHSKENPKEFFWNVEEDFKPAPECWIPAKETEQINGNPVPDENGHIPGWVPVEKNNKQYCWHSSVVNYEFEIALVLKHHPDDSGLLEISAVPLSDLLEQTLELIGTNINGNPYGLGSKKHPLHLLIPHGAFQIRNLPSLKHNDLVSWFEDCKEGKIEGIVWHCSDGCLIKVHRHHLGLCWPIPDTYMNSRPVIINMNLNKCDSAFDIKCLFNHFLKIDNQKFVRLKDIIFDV

## COc1cccc2c1C(=N)c1c(O)c3c(c(O)c1C2=O)C[C@@](O)(C(C)=O)C[C@@H]3O[C@H]1C[C@H](N)[C@H](O)[C@H](C)O1.Cl [5-Iminodaunorubicin (hydrochloride)]
[1]
  1-D Distance.npi: 90.1534
[2]
  1-D Distance: 802
Sheet HTS hits
  Raw data [w Enyzm]: 2925
  Raw data [w/o Enzym]: 3727

## COc1cccc2c1C(=N)c1c(O)c3c(c(O)c1C2=O)C[C@@](O)(C(C)=O)C[C@@H]3O[C@H]1C[C@H](N)[C@H](O)[C@H](C)O1 [5-Iminodaunorubicin]
[3]
  1-D Distance: 1374
[4]
  1-D Distance.npi: 80.0753
HTS hits
  Raw data [w Enyzm]: 2360
  Raw data [w/o Enzym]: 3734

## CN(C)CCSSCCNC(=O)C1CCN(C(=O)CSc2ccc(Cl)cc2)CC1.O=C(O)C(F)(F)F [6H05 (TFA)]
[3]
  1-D Distance: 1774
[4]
  1-D Distance.npi: 75.4127
HTS hits
  Raw data [w Enyzm]: 8996
  Raw data [w/o Enzym]: 10770

## CC(C)=CC[C@H](O)C1=CC(=O)c2c(O)ccc(O)c2C1=O [(-)-Alkannin]
[5]
  1-D Distance.npi: 70.9637
[6]
  1-D Distance: 1812
HTS hits
  Raw data [w Enyzm]: 3885

## Cc1ncsc1-c1ccc(CNC(=O)[C@@H]2C[C@@H](O)CN2C(=O)[C@@H](NC(=O)CCN)C(C)(C)C)cc1.Cl.Cl [(S,R,S)-AHPC-C2-NH2 (dihydrochloride)]
[1]
  1-D Distance.npi: 76.891
[2]
  1-D Distance: 1672
Sheet HTS hits
  Raw data [w Enyzm]: 9239
  Raw data [w/o Enzym]: 10911

## CCCCCCCCCCCCCCCC(=O)NCCCC[C@@H](N)C(=O)NCCCNCCCCNCCCN.Cl.Cl.Cl.Cl [AMXT-1501 tetrahydrochloride]
[3]
  1-D Distance: 45
[7]
  1-D Distance.npi: 103.958
HTS hits
  Raw data [w Enyzm]: 4942
  Raw data [w/o Enzym]: 4897

## O=C(O)c1ccc(-c2ccc(N(c3ccc(-c4ccc(C(=O)O)cc4)cc3)c3ccc(-c4ccc(C(=O)O)cc4)cc3)cc2)cc1 [Antibacterial agent 18]
[5]
  1-D Distance.npi: 80.2581
[6]
  1-D Distance: 1227
HTS hits
  Raw data [w Enyzm]: 12110
  Raw data [w/o Enzym]: 13337

## CN1CCC=C(C(=O)O)C1 [Arecaidine]
[3]
  1-D Distance: 1949
[4]
  1-D Distance.npi: 71.9903
HTS hits
  Raw data [w Enyzm]: 8786
  Raw data [w/o Enzym]: 10735

## C=C1C(=O)O[C@@H]2[C@H]3C(C)=CC[C@@]34O[C@@]4(C)CC[C@@H]12 [Arglabin]
[3]
  1-D Distance: 1673
HTS hits
  Raw data [w Enyzm]: 8885
  Raw data [w/o Enzym]: 10558

## CC(=O)Nc1cc(Oc2ccc3c(C(=O)Nc4ccc(CN5CCN(C)CC5)c(C(F)(F)F)c4)cccc3c2)ncn1 [BGG463]
[3]
  1-D Distance: 797
[7]
  1-D Distance.npi: 93.5609
HTS hits
  Raw data [w Enyzm]: 8276
  Raw data [w/o Enzym]: 9073

## C[n+]1ccc(/C=C/c2ccc3c(c2)c2cc(/C=C/c4cc[n+](C)cc4)ccc2n3CCOCCOCCOCC[N+]2(C)CCCCC2)cc1.[I-].[I-].[I-] [BMVC-8C3O]
[3]
  1-D Distance: 496
[7]
  1-D Distance.npi: 99.5333
HTS hits
  Raw data [w Enyzm]: 3841
  Raw data [w/o Enzym]: 4337

## O=c1[nH]c(=O)c2ccccc2[nH]1 [Benzoyleneurea]
[5]
  1-D Distance.npi: 70.2932
[6]
  1-D Distance: 1891
HTS hits
  Raw data [w Enyzm]: 9137
  Raw data [w/o Enzym]: 11028

## O=C(O)CCCN1CCC(O[C@@H](c2ccc(Cl)cc2)c2ccccn2)CC1.O=S(=O)(O)c1ccccc1 [Bepotastine (besilate)]
[1]
  1-D Distance.npi: 70.3956
[2]
  1-D Distance: 1900
Sheet HTS hits
  Raw data [w Enyzm]: 8762
  Raw data [w/o Enzym]: 10662

## C#CCOCCOCCOCCOCC#C [Bis-propargyl-PEG3]
[1]
  1-D Distance.npi: 78.8376
[2]
  1-D Distance: 1567
Sheet HTS hits
  Raw data [w Enyzm]: 9208
  Raw data [w/o Enzym]: 10775

## CN(C)c1ccc(Nc2c3ccc(NC(=O)CCN4CCCC4)cc3nc3cc(NC(=O)CCN4CCCC4)ccc23)cc1.Cl.Cl.Cl [Braco-19 (trihydrochloride)]
[3]
  1-D Distance: 99
[4]
  1-D Distance.npi: 102.921
HTS hits
  Raw data [w Enyzm]: 2490
  Raw data [w/o Enzym]: 2391

## CC(=O)Nc1ccc(S(=O)(=O)[O-])c2cc(S(=O)(=O)[O-])c(N=Nc3ccc(N=Nc4ccc(S(=O)(=O)[O-])cc4)c4ccc(S(=O)(=O)[O-])cc34)c(O)c12.[Na+].[Na+].[Na+].[Na+] [Brilliant Black BN]
[5]
  1-D Distance.npi: 98.2105
[6]
  1-D Distance: 272
HTS hits
  Raw data [w Enyzm]: 1620
  Raw data [w/o Enzym]: 1348

## CC(C)(C)OC(=O)CCOCCBr [Bromo-PEG1-C2-Boc]
[1]
  1-D Distance.npi: 72.9978
[2]
  1-D Distance: 1882
Sheet HTS hits
  Raw data [w Enyzm]: 9154
  Raw data [w/o Enzym]: 11036

## CC(/C=C/C=C(\C)C(=O)O[C@@H]1O[C@H](CO[C@@H]2O[C@H](CO)[C@@H](O)[C@H](O)[C@H]2O)[C@@H](O)[C@H](O)[C@H]1O)=C\C=C\C=C(C)\C=C\C=C(/C)C(=O)O[C@@H]1O[C@H](CO[C@@H]2O[C@H](CO)[C@@H](O)[C@H](O)[C@H]2O)[C@@H](O)[C@H](O)[C@H]1O [Crocin]
[6]
  1-D Distance: 1393
HTS hits
  Raw data [w Enyzm]: 2370
  Raw data [w/o Enzym]: 3763

## COc1cccc2c1C(=O)c1c(O)c3c(c(O)c1C2=O)C[C@@](O)(C(C)=O)C[C@@H]3O[C@H]1C[C@H](NC(=O)OCc2ccc(O[C@@H]3O[C@H](CO)[C@H](O)[C@H](O)[C@H]3O)c([N+](=O)[O-])c2)[C@H](O)[C@H](C)O1 [Daun02]
[3]
  1-D Distance: 1434
[7]
  1-D Distance.npi: 83.3585
HTS hits
  Raw data [w Enyzm]: 2111
  Raw data [w/o Enzym]: 3545

## Cc1cccc2c3c(ccc12)C(=O)C1=C(OCC1C)C3=O (stereo not drawn) [Dihydroisotanshinone I]
[1]
  1-D Distance.npi: 72.3395
[2]
  1-D Distance: 1938
Sheet HTS hits
  Raw data [w Enyzm]: 11164
  Raw data [w/o Enzym]: 13102

## CC1=NN(c2ccc(C)c(C)c2)C(=O)/C1=N\Nc1cccc(-c2cccc(C(=O)O)c2)c1O.NCCO.NCCO [Eltrombopag (Olamine)]
[1]
  1-D Distance.npi: 92.4928
[2]
  1-D Distance: 680
Sheet HTS hits
  Raw data [w Enyzm]: 3683
  Raw data [w/o Enzym]: 4363

## COc1cccc2c1C(=O)c1c(O)c3c(c(O)c1C2=O)C[C@@](O)(C(=O)CO)C[C@@H]3O[C@H]1C[C@H](N)[C@@H](O)[C@H](C)O1.Cl [Epirubicin (hydrochloride)]
[5]
  1-D Distance.npi: 99.0682
[6]
  1-D Distance: 316
HTS hits
  Raw data [w Enyzm]: 1246

## CC(=O)O[C@H]1C[C@@]2(C)[C@@H](C[C@@H](O)[C@H]3[C@@]4(C)CC[C@@H](O)[C@@H](C)[C@@H]4CC[C@@]32C)/C1=C(\CCC=C(C)C)C(=O)[O-].[Na+] [Fusidic acid (sodium salt)]
[1]
  1-D Distance.npi: 75.4657
[2]
  1-D Distance: 1636
Sheet HTS hits
  Raw data [w Enyzm]: 9299
  Raw data [w/o Enzym]: 10935

## C=CC1=C(C)c2cc3[n-]c(cc4nc(cc5[n-]c(cc1n2)c(C)c5C=C)C(C)=C4CCC(=O)O)c(CCC(=O)O)c3C.[Cl-].[Fe+3] [Hemin]
[1]
  1-D Distance.npi: 76.0753
[2]
  1-D Distance: 1716
Sheet HTS hits
  Raw data [w Enyzm]: 4406
  Raw data [w/o Enzym]: 6122

## C/C1=C2/[N-]C([C@H](CC(N)=O)[C@@]2(C)CCC(=O)NC[C@@H](C)OP(=O)([O-])O[C@H]2[C@@H](O)[C@@H](n3cnc4cc(C)c(C)cc43)O[C@@H]2CO)[C@]2(C)N=C(/C(C)=C3N=C(/C=C4N=C1[C@@H](CCC(N)=O)C\4(C)C)[C@@H](CCC(N)=O)[C@]\3(C)CC(N)=O)[C@@H](CCC(N)=O)[C@]2(C)CC(N)=O.CC(=O)[O-].[Co+3] [Hydroxocobalamin (acetate)]
[5]
  1-D Distance.npi: 78.9236
[6]
  1-D Distance: 1452
HTS hits
  Raw data [w Enyzm]: 4827
  Raw data [w/o Enzym]: 6279

## C/C1=C2N=C(/C=C3N=C(/C(C)=C4\[N-]C(C(CC(N)=O)C4(C)CCC(=O)NCC(C)OP(=O)([O-])OC4C(CO)OC(n5cnc6cc(C)c(C)cc65)C4O)C4(C)N=C1C(CCC(N)=O)C4(C)CC(N)=O)C(CCC(N)=O)C\3(C)C)C(CCC(N)=O)C/2(C)CC(N)=O.Cl.[Co+3].[OH-] (stereo not drawn) [Hydroxocobalamin (monohydrochloride)]
[1]
  1-D Distance.npi: 101.9
[2]
  1-D Distance: 179
Sheet HTS hits
  Raw data [w Enyzm]: 5221
  Raw data [w/o Enzym]: 5042

## COc1c2c3c4c(c(OC)c(=O)c5c(O)cc(OC)c(c6c(OC)cc(O)c(c1=O)c63)c54)[C@@H](C(C)=O)[C@@](C)(O)C2 [Hypocrellin A]
[3]
  1-D Distance: 1179
HTS hits
  Raw data [w Enyzm]: 1866
  Raw data [w/o Enzym]: 3045

## CC(=O)[C@]1(O)Cc2c(O)c3c(c(O)c2[C@@H](O[C@H]2C[C@H](N)[C@H](O)[C@H](C)O2)C1)C(=O)c1ccccc1C3=O.Cl [Idarubicin (hydrochloride)]
[5]
  1-D Distance.npi: 74.8199
[6]
  1-D Distance: 1722
HTS hits
  Raw data [w Enyzm]: 5823
  Raw data [w/o Enzym]: 7545

## CC(C)c1nc2c([nH]1)-c1ccccc1C(=O)C2=O [KL1333]
[3]
  1-D Distance: 578
[7]
  1-D Distance.npi: 96.7085
HTS hits
  Raw data [w Enyzm]: 12041
  Raw data [w/o Enzym]: 12619

## N[C@@H](CS)C(=O)O [L-Cysteine]
[3]
  1-D Distance: 1124
HTS hits
  Raw data [w Enyzm]: 9158
  Raw data [w/o Enzym]: 10282

## N#Cc1cc(NS(=O)(=O)c2ccc(N)cc2)ccc1Oc1ccc(Cl)c(C(F)(F)F)c1 [Lp-PLA2-IN-3]
[5]
  1-D Distance.npi: 92.9896
[6]
  1-D Distance: 555
HTS hits
  Raw data [w Enyzm]: 9448

## CN(C)CCOC(=O)COc1ccc(Cl)cc1.Cl [Meclofenoxate (hydrochloride)]
[5]
  1-D Distance.npi: 72.0073
[6]
  1-D Distance: 1832
HTS hits
  Raw data [w Enyzm]: 9480
  Raw data [w/o Enzym]: 11312

## COS(=O)(=O)[O-].COc1cccc2c1nc1ccccc1[n+]2C [Methoxy-PMS]
[3]
  1-D Distance: 2097
[7]
  1-D Distance.npi: 71.83
HTS hits
  Raw data [w Enyzm]: 4514
  Raw data [w/o Enzym]: 6611

## COC(=O)Cc1ccc(C(C)(C)C)cc1 [Methyl p-tert-butylphenylacetate]
[3]
  1-D Distance: 2067
[4]
  1-D Distance.npi: 70.3748
HTS hits
  Raw data [w Enyzm]: 8807
  Raw data [w/o Enzym]: 10874
